# Test results reported in patent US20090137499A1, “BENZYLPHENYL GLUCOPYRANOSIDE DERIVATIVE” (priority 2006, published 2009).
# Biological target: T1, human SGLT2 (Homo sapiens, UniProt P31639)
# T1 construct: expressed in transfected cells
# T1 sequence (P31639 1-672): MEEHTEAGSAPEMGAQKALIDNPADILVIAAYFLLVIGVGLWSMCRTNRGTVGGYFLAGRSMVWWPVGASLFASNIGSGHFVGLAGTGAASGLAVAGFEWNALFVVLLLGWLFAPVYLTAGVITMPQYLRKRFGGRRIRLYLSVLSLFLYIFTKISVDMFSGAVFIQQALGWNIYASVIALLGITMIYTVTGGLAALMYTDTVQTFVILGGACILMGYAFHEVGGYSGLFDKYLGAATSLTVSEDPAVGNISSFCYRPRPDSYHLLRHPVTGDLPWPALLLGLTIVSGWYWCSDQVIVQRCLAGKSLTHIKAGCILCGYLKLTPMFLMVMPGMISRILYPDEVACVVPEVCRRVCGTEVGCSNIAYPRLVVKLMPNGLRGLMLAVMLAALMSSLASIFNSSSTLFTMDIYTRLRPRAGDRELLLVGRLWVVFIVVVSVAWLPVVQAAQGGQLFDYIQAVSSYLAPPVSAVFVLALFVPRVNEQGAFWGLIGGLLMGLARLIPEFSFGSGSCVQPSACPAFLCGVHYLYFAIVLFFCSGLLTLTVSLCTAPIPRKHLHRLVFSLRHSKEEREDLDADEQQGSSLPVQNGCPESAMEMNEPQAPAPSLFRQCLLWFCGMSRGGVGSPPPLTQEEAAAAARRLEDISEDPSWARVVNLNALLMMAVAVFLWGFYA
# Test: Determination of SGLT2 inhibiting activity using human SGLT2 expressing cell ([14C]-α-methyl-D-glucopyranoside uptake)
# Type: cell-based
# Details: HEK-SGLT2 cells, 1 mM [14C]-α-methyl-D-glucopyranoside, 37° C., 30 min
# Description: Determination of SGLT2 Inhibiting Activity Using Human SGLT2 Expressing Cell
# 1) Preparation of Vector Expressing Human SGLT2 cDNA in Animal Cell
# Amplification was performed by PCR using human SGLT2 cDNA clone (Origene: Clone Number, TC303267; GenBank accession number, NM 003041) as a template. The sense oligonucleotide primer for PCR was 5′-[…]-3′ (Primer 3: SEQ ID NO: 3 in the sequence listing),
# and the antisense oligonucleotide primer was 5′-[…]-3′ (Primer 4: SEQ ID NO: 4 in the sequence listing). The PCR product was subjected to agarose electrophoresis, then a target DNA fragment was recovered from a single band corresponding to 2037 bases, digested with restriction enzymes HindIII and XhoI, and introduced into the HindIII/XhoI site of vector pCMV-Script (Stratagene) to obtain SGLT2 expressing plasmid pCMV-SGLT2. A HindIII/XhoI fragment was excised from pCMV-SGLT2 and introduced into the BamHI/XhoI site of pENTR1A (Gateway, Invitrogen) to prepare pENTR-SGLT2. Retrovirus vector pLPCX (Clontech) into which Gateway Vector Conversion System Cassette A (Invitrogen) was introduced was used as the destination plasmid to prepare SGLT2 expressing retrovirus vector pLPCX-SGLT2.
# 2) Establishment of Human SGLT2 Expressing Cell
# The retrovirus pLPCX-SGLT2 obtained in 1) was transfected into integrin αvβ3 expressing HEK-293 cells, the cells were treated with antibiotic G418 (brand name, Geneticin: Invitrogen) and puromycin (Clontech) to obtain HEK-SGLT2 cells stably expressing the target vector having resistance. The stably expressing cells were cultured and maintained in DMEM medium containing […] G418, […] puromycin, 3 mM KGT-1075, and 10% FBS.
# 3) Determination of SGLT2 Inhibiting Activity
# HEK-SGLT2 cells were suspended at a density of 10^6 cells/mL in DMEM medium containing 250 mg/mil G418, 1 mg/ml puromycin, and 10% FBS, and 100 μL was seeded in each well of a type 1 collagen-coated 96-well culture plate (Corning). On the following day, the medium was replaced with a sugar uptake buffer (10 mM HEPES [pH 7.5], 5 mM Tris-HCl [pH 7.5], 140 mM NaCl, 2 mM KCl, 1 mM CaCl2, 1 mM MgCl2), and the cells were cultured with 1 mM [^14C]-α-methyl-D-glucopyranoside (0.1 mCi) and a test compound at 37° C. for 30 min, and then washed 3 times with a washing buffer (10 mM HEPES (pH 7.5), 5 mM Tris-HCl (pH 7.5), 140 mM choline chloride, 2 mM KCl, 1 mM CaCl2, 1 mM MgCl2). 100 μL of liquid scintillation cocktail (brand name, Supermix: Perkin-Elmer) was added to each well of the 96-well plate and stirred for 10 min, and then radioactivity was determined with micro β (Perkin-Elmer), a type of liquid scintillation counter. The value obtained by deducting the radioactivity in the presence of an excess amount of an SGLT2 inhibiting compound as the background from each measured value was taken as the sugar uptake activity, the inhibition rate (%) was calculated from the control sugar uptake activity obtained without using a test compound and the sugar uptake activity obtained using a test compound having a predetermined concentration, and the concentrations of the test compound at which the sugar uptake activity was inhibited by 50% were assessed.
row,IC50,SMILES
1,0.039 µM,"COc1ccc(Cc2c(OC)cc(CO)cc2O[C@@H]2O[C@H]([C@@H](C)O)[C@@H](O)[C@H](O)[C@H]2O)cc1 [Example 83, 5-Hydroxymethyl-3-methoxy-2-(4-methoxybenzyl)phenyl 7-deoxy-D-glycero-β-D-gluco-heptopyranoside]"
2,0.0063 µM,"COc1ccc(Cc2c(F)cc(CO)cc2O[C@@H]2O[C@H]([C@@H](C)O)[C@@H](O)[C@H](O)[C@H]2O)cc1 [Example 84, 3-Fluoro-5-hydroxymethyl-2-(4-methoxybenzyl)phenyl 7-deoxy-D-glycero-β-D-gluco-heptopyranoside]"
3,0.019 µM,"C[C@@H](O)[C@H]1O[C@@H](Oc2cc(CO)cc(F)c2Cc2ccc(C3CC3)cc2)[C@H](O)[C@@H](O)[C@@H]1O [Example 88, 2-(4-Cyclopropylbenzyl)-3-fluoro-5-hydroxymethylphenyl 7-deoxy-D-glycero-β-D-gluco-heptopyranoside]"
4,0.035 µM,"CCc1ccc(Cc2c(C)cc(CO)cc2O[C@@H]2O[C@H]([C@@H](C)O)[C@@H](O)[C@H](O)[C@H]2O)cc1 [Example 89, 2-(4-Ethylbenzyl)-5-hydroxymethyl-3-methylphenyl 7-deoxy-D-glycero-β-D-gluco-heptopyranoside]"
5,0.013 µM,"CCOc1ccc(Cc2ccc(CO)cc2O[C@@H]2O[C@H]([C@@H](C)O)[C@@H](O)[C@H](O)[C@H]2O)cc1 [Example 93, 2-(4-Ethoxybenzyl)-5-hydroxymethylphenyl 7-deoxy-D-glycero-β-D-gluco-heptapyranoside]"
6,0.011 µM,"COc1ccc(Cc2c(C)cc(CO)cc2O[C@@H]2O[C@H]([C@@H](C)O)[C@@H](O)[C@H](O)[C@H]2O)cc1 [Example 94, 5-Hydroxymethyl-2-(4-methoxybenzyl)-3-methylphenyl 7-deoxy-D-glycero-β-D-gluco-heptopyranoside]"
7,0.049 µM,"C[C@@H](O)[C@H]1O[C@@H](Oc2cc(CO)cc(Cl)c2Cc2ccc(OC3CC3)cc2)[C@H](O)[C@@H](O)[C@@H]1O [Example 95, 3-Chloro-2-(4-cyclopropoxybenzyl)-5-hydroxymethyl-phenyl 7-deoxy-D-glycero-β-D-gluco-heptopyranoside]"
8,0.036 µM,"Cc1cc(CO)cc(O[C@@H]2O[C@H]([C@@H](C)O)[C@@H](O)[C@H](O)[C@H]2O)c1Cc1ccc(OC2CC2)cc1 [Example 96, 2-(4-Cyclopropoxybenzyl)-5-hydroxymethyl-3-methyl-phenyl 7-deoxy-D-glycero-β-D-gluco-heptopyranoside]"
9,0.011 µM,"Cc1ccc(Cc2c(F)cc(CO)cc2O[C@@H]2O[C@H]([C@@H](C)O)[C@@H](O)[C@H](O)[C@H]2O)cc1 [Example 97, 3-Fluoro-5-hydroxymethyl-2-(4-methylbenzyl)phenyl 7-deoxy-D-glycero-β-D-gluco-heptopyranoside]"
10,0.017 µM,"Cc1ccc(Cc2ccc(CO)cc2O[C@@H]2O[C@H]([C@@H](C)O)[C@@H](O)[C@H](O)[C@H]2O)cc1 [Example 98, 5-Hydroxymethyl-2-(4-methylbenzyl)phenyl 7-deoxy-D-glycero-β-D-gluco-heptapyranoside]"
11,0.136 µM,"C=Cc1cc(CO)cc(O[C@@H]2O[C@H]([C@@H](C)O)[C@@H](O)[C@H](O)[C@H]2O)c1Cc1ccc(OC)cc1 [Example 101, 5-Hydroxymethyl-2-(4-methoxybenzyl)-3-vinyl-phenyl 7-deoxy-D-glycero-β-D-gluco-heptopyranoside]"
